Experiments:
[1] = system: vancomycin-resistant Enterococcus (VRE); details: vancomycin-resistant Enterococcus (D-Lac); cited from earlier work
[2] = D-Lac vs D-Ala peptide terminus; cited from earlier work
[3] = cantilever bending in serum, D-Lac coated cantilevers; format: binding; details: 7 μM Van in serum (90% fetal calf serum plus 10% sodium phosphate buffer pH 7.4), 25 °C
[4] = cantilever bending in serum, D-Ala coated cantilevers; format: binding; details: 7 μM Van in serum (90% fetal calf serum plus 10% sodium phosphate buffer pH 7.4), 25 °C
[5] = cantilever array surface stress detection, D-Lac coated cantilevers, buffer; format: binding

CN[C@H](CC(C)C)C(=O)N[C@H]1C(=O)N[C@@H](CC(N)=O)C(=O)N[C@H]2C(=O)N[C@H]3C(=O)N[C@H](C(=O)N[C@H](C(=O)O)c4cc(O)cc(O)c4-c4cc3ccc4O)[C@H](O)c3ccc(c(Cl)c3)Oc3cc2cc(c3O[C@@H]2O[C@H](CO)[C@@H](O)[C@H](O)[C@H]2O[C@H]2C[C@](C)(N)[C@H](O)[C@H](C)O2)Oc2ccc(cc2Cl)[C@H]1O [Van, vancomycin]
therapeutic effectiveness against Enterococcal infections [1]: therapeutically ineffective | reduction in Van-D-Lac binding affinity [2]: three orders of magnitude | bending signal [3]: no bending was observed | differential bending signal [4]: 105±4 nm | bending signal at high vancomycin concentration [5]: measureable bending signals

Reference: PMC3963422 (Journal of Visualized Experiments : JoVE, 2013)
